Consider 3 compounds from patent US9828333B2, “Compounds for the treatment of influenza” (CHRISTIAN-ALBRECHTS-UNIVERSITAT ZU KIEL, priority 2011, dated 2017).

As a reminder, the MRT is the average time that molecules of a dose stay in the body. Usually half-life stands for how long it takes for the measured level to halve. Low readings indicate rapid decline, high ones slow decline. Usually solubility stands for how much of the substance goes into solution per volume. A low value points to a poorly soluble substance.

Where two headings read alike, the source gives them in different places. Bounds are passed on as bounds.

Data set [1] addresses albumin (Homo sapiens, UniProt P02768). Format: in vitro ADME. As to conditions: 4% albumin solution, average of three concentrations (10, 25, 50 μM). The procedure:
3. Determination of Protein Binding of the Amidine Effective Form (3) as Well as of Prodrugs Thereof (2, 4) and of the Guanidine Effective Form (9) as Well as of Prodrugs Thereof (6, 10)
(§1) The plasma protein binding was carried out in three different concentrations (10, 25, and 50 μM). A 4% albumin solution was used as protein solutions. In each case, 50 μl of a 10-fold concentrated substance solution were pipetted in 450 μl of the protein solution. The incubation was carried out for 15 minutes in the shaking water bath at 37° C. Subsequently, the samples were transferred in ultra-filtration units (Vivaspin 500, 10 kDa cut-off) and centrifuged for 15 min at 10.000 rpm. The filtrate was analyzed by HPLC. In addition, a control was run for each concentration, which was not treated with protein and not centrifuged.

A short description of data set [2]: in vitro. Format: in vitro ADME. As to conditions: human plasma instead of the 4% albumin solution; read-out: Protein binding (converted). The procedure:
. Therefor, human plasma was used instead of the 4% albumin solution. […]. The values are as expected somewhat higher than the values obtained with the 4% albumin solution and are to be traced back to the presence of other plasma proteins (e.g. α1-acidic glycoprotein) in addition to albumin.
as §1
. Therefor, instead of the 4% albumin solution, human plasma was used. […]. As anticipated, the values are somewhat higher than the values obtained with the 4% albumin solution and are due to the presence of other plasma proteins (e.g., α1-acidic glycoprotein) besides the albumin.

Data set [3] has as its system influenza A virus A/Jena/5258/2009 (pandemic H1N1; oseltamivir-sensitive). Format: cell-based.
Data set [4] is described as follows: in vivo. Conditions: rat; for Plasma level of derivative 9 (Conc.): intravenous administration of derivative 9, 10 mg/kg. The procedure: Sprague Dawley (SD) rats were supplied for habitation 10 days before the start of the experiment, weighing ˜300-350 g and kept in an air conditioned room with a constant temperature of 20° C. and a humidity of 50%. In this room there was a day-night rhythm of twelve hours. The dark phase began daily at 18 o'clock and turned over to the light phase at 6 clock. The rats were kept over the acclimatization period in standard cages of the size 3 (length: 42 cm, width 26 cm, height: 15 cm) and transferred three days before commencement of an experiment into a special experimental room, placed in the identical environmental conditions. They received a maintenance diet (maintenance diet for rats and mice; No. 1320; Altromin) and tap water ad libitum.
A catheter was implanted in the vein as well as in the arteria femoralis of rats receiving an i.v. administration. Rats receiving only oral administration of substances received a […] catheter only.
The catheterized animals were kept after surgery for a day in the experimental room and individually in their experimental cages. The application of the test compounds was carried out on the second day after the operation. On the experimental day, the rats were weighed one hour prior to the test and the arterial catheter was flushed with 300 μl of heparin solution. Subsequently, the i.v. or oral administration of the compounds was carried out.
The oral administrations were performed as a suspension or solution made with gum arabic (10% w/v) by gavage.
The oral administrations were made as suspension or solution with gum arabic (10% w/v) by gavage.
After i.v. administration, plasma samples were taken at 5, 10, 20, 45, 90, 150, 240 and 360 min, respectively after oral administration after 30, 60, 90, 120, 180, 240 and 360 min. To this, in each case 300 μl of whole blood were taken using an insulin syringe and transferred into EDTA-coated Microvettes CB 300 (Sarstedt, Nümbrecht). After each withdrawal it was rinsed with 100 μl 0.9% saline or every 60 min with heparin solution (250 IU/ml). The blood sample was shaken briefly and put until centrifugation (4° C.; 14000 U/min; 10 min) on ice. Subsequently, the samples were frozen at −80° C.
The plasma samples were processed and analyzed by HPLC. Therefor, the plasma samples were thawed at room temperature. In each case, 80 μl methanol (+0.2% TFA) were prepared and subsequently 80 μl of the plasma samples were pipetted into. The samples were shaken for 45 min to precipitate plasma proteins. The samples were frozen at −80° C., thawed and shaken for another 15 min. The samples were centrifuged for 15 min at 13.000 RPM and the supernatant was transferred into HPLC vials. In each case 50 μl were used for the determinations by LC/MS.
The animal studies were evaluated using the following LC/MS method.

The subject of data set [5] is influenza A virus A/Jena/5258/2009. As to the kind of experiment: microbe, parasite or virus in culture. Format: cell-based, influenza A virus H1N1. Conditions: Influenza A virus, MDCK, read-out: 50% inhibitory concentration, A/Jena/5258/2009.
Data set [6] has as its system influenza A virus A/342/2009. As to the kind of experiment: microbe, parasite or virus in culture. The data set is classed as cell-based, influenza A virus H1N1. Conditions: for IC50: read-out: 50% inhibitory concentration, A/342/2009.
For data set [7], the target named is neuraminidase of influenza A virus A/Jena/5258/2009 (H1N1-subtype) (Influenza A virus, UniProt A0A088CA11). As to the kind of experiment: biochemical.
Data set [8] is described as follows: physchem. The data set is classed as physicochemical. As to conditions: aqueous buffer, thermodynamic from solid. The procedure: 2. Solubility Assays of the Compounds Tested
Determining the Solubility at Different pH Values:
Therefor, a few mg of the compounds were weighed and mixed with the volume of 50 mM KH2PO4 buffer of respective pH value for a 50 mM solution. […] Subsequently, the undissolved portion was removed by centrifugation at 10.000 rpm for 15 min, and the concentration in the supernatant was determined by HPLC.

The format of data set [9] is in vitro ADME, murine. Conditions: 37° C., up to 120 min. The procedure: (§2) In addition, the substances were tested in human and murine plasma. Therefor, 630 μl of the plasma as mixed with 70 μl of a 2 mM stock solution of each compound in 10 mM phosphate buffer pH 7.4. The incubations were performed in a shaking water bath at 37° C. The incubation was terminated at the times 15, 30, 45, 60, 90 and 120 min by removal of 100 μl sample and addition of 100 μl acetonitrile. The samples were centrifuged (12,000 rpm/10 min) and the supernatant surveyed by HPLC.
(§3) The stability studies were analyzed using the following HPLC method.

The format of data set [10] is physicochemical. As to conditions: 0.2 mg/ml, pH 7.4 at RT and 4° C. or Aqua bidest at 4° C., 14 days. The procedure: The storage stability in solution was determined at a concentration of 0.2 mg/ml. Therefor, a compound was dissolved in 50 mM KH2PO4 buffer, pH 7.4 respectively Aqua bidest and stored at RT (pH 7.4) or in a refrigerator at 4° C. (pH 7.4 respectively Aqua bidest) over the test period. The concentration of the active form was determined after 12 h, 1 d, 2 d, 4 d, 7 d and 14 d by HPLC.
Stability Studies for the Amidine Effective Form (3) and Guanidine Effective Form (9) Over 2 Weeks Studies at pH 7.4:
The storage stability in dissolved form was determined at a concentration of 0.2 mg/ml. For this purpose, the compound was dissolved in 50 mM KH2PO4 buffer pH 7.4 or in aqua bidest and stored for the investigation period at RT (pH 7.4) or in a refrigerator at 4° C. (pH 7.4 or aqua bidest). The concentration of the effective form was determined by HPLC after 12 h, 1 d, 2 d, 4 d, 7 d and 14 d.

Data set [11] is classed as in vitro ADME, human. As to conditions: 37° C., up to 120 min. The procedure: as §2, §3
The conditions of data set [12]: rat, in vivo; cited from earlier work.
The mark [13] stands for this setting: Sprague Dawley, in vivo, iv, 10 mg/kg.
[14] abbreviates: Sprague Dawley, in vivo, po, 50 mg/kg.

Sequence of albumin (P02768 25-609): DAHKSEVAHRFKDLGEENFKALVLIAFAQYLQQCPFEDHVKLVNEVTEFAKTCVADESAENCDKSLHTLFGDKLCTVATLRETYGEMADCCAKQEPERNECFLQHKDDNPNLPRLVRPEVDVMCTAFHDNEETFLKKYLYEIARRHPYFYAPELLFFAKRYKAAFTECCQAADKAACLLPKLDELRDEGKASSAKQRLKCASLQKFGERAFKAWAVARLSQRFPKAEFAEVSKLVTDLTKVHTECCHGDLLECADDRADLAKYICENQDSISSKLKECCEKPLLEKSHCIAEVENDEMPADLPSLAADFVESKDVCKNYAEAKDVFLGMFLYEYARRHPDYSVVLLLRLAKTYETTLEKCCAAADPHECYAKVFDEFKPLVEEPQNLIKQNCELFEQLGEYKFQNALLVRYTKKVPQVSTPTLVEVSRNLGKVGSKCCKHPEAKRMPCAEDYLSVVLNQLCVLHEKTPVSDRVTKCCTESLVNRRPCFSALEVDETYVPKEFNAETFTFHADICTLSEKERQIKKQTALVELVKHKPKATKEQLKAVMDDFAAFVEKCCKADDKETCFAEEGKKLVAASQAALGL

In data set [1], `CCC(CC)O[C@@H]1C=C(C(=O)O)C[C@H](NC(C)=N)[C@H]1NC(C)=O` [Compound 3] had a Protein binding of 2.2 ± 1.5%. Further, in data set [2], the fraction unbound is 0.963. For the same compound, in [3], the “90% inhibitory concentration, A/Jena/5258/2009” value (“90% inhibitory concentration” for short) is given as 0.001 (0.011) μM. In data set [3], the “95% inhibitory concentration (values in parentheses), A/Jena/5258/2009” value (“95% inhibitory concentration” for short) is on record as 0.001 (0.011) μM. Further, the Bioavailability was 100% in data set [4] (setting [13]) and 3.0% in data set [4] (setting [14]). Moreover, the results for the MRT in [4] (setting [13]) and in data set [4] (setting [14]) were 35.2 min and 112.0 min, respectively. For the same compound, the half-life in data set [4] (setting [13]) was 38.5 min; in data set [4] (Sprague Dawley, in vivo, po) it was roughly 112 min. In [4] (setting [14]), the cmax was determined as 0.7 µg/mL. Further, the “Plasma level of derivative 3 (Conc.) after oral administration of the labelled derivative” value in data set [4] (Sprague Dawley, in vivo, po, 50 mg/kg, 0 min) was found to be 0.00 µM; in data set [4] (Sprague Dawley, in vivo, po, 50 mg/kg, 30 min), 1.63 µM; in [4] (Sprague Dawley, in vivo, po, 50 mg/kg, 60 min) it was 1.59 µM; in data set [4] (Sprague Dawley, in vivo, po, 50 mg/kg, 90 min), 1.50 µM; in data set [4] (Sprague Dawley, in vivo, po, 50 mg/kg, 120 min), 1.25 µM; in data set [4] (Sprague Dawley, in vivo, po, 50 mg/kg, 180 min), 0.61 µM. Besides, the “Plasma level of derivative 3 (Conc.) after oral administration of the labelled derivative” value in data set [4] (Sprague Dawley, in vivo, po, 50 mg/kg, 240 min) was found to be 0.30 µM; in data set [4] (Sprague Dawley, in vivo, po, 50 mg/kg, 360 min), 0.04 µM. Further, the AUC in [4] (Iv, 10 mg/kg, active form 3 in plasma) was 576.8. For the same compound, the IC50 in [5] stood at 2000 nM; in data set [6] (Influenza A virus, MDCK), 12.2 µM; in [6], 12.1 µM; in [7] it was 0.1 nM. This compound gave a solubility at 30 min in [8] greater than 50 mM.
As for `CCC(CC)O[C@@H]1C=C(C(=O)O)C[C@H](NC(=N)N)[C@H]1NC(C)=O` [Compound 9, (3R,4R,5S)-4-acetamido-5-(N-guanidino)-3-(1-ethylpropoxy)cyclohex-1-en-1-carboxylic acid], the Protein binding in [1] stood at 0.4 ± 2.8%. For the same compound, the fraction unbound in data set [2] is 0.914. Also, in data set [9], the “Stability/metabolism by plasma enzymes in murine plasma” value was “not metabolized”. In addition, in data set [3], the “90% inhibitory concentration” value is listed as 0.002 (0.003) μM. Further, in data set [3], the “95% inhibitory concentration” value is listed as 0.002 (0.003) μM. Moreover, the AUC in [4] (setting [13]) is 4880 ng·h/mL. Moreover, the Bioavailability in [4] (setting [13]) was 100%. The compound also had an MRT in data set [4] (setting [13]) of 54.1 min. In addition, the half-life in data set [4] (setting [13]) was 120 min; in data set [4] (Sprague Dawley, in vivo, po), roughly 98 min. Besides, the “Plasma level of derivative 9 (Conc.)” value in data set [4] (time 5) amounted to 23.71 µM; in data set [4] (time 10), 18.30 µM; in data set [4] (time 20), 12.67 µM; in [4] (time 45), 5.05 µM; in [4] (time 90) it was 1.67 µM; in [4] (time 150), 0.54 µM. Besides, the figures for the “Plasma level of derivative 9 (Conc.)” value in data set [4] (time 240) and in data set [4] (time 360) were 0.23 µM and 0.11 µM, respectively. In addition, the IC50 came to 1100 nM in [5] and 4.1 µM in data set [6] (Influenza A virus, MDCK). Besides, the “Storage stability in solution” value in data set [10] is reported as “stable”. Also, in [11], the “Stability/metabolism by plasma enzymes in human plasma” value was “not metabolized”.
For `CCOC(=O)C1=C[C@@H](OC(CC)CC)[C@H](NC(C)=O)[C@@H](N)C1` [Oseltamivir, (3R,4R,5S)-4-acetamido-5-amino-3-(1-ethylpropoxy)cyclohex-1-en-1-carboxylic acid ethyl ester, reference compound], the “90% inhibitory concentration” value in [3] was 0.016 (0.021) μM. The “95% inhibitory concentration” value in data set [3] is listed as 0.016 (0.021) μM. For the same compound, the IC50 in [5] came to 13200 nM; in data set [7] it was 0.1 nM. In addition, the “50% inhibitory concentration, A/342/2009” value in data set [6] is given as “resistant”. In data set [12], the plasma half-life period is reported as 44 min.
